Structures can show the parent of a compound that is named as a salt.
Assays:
Assay type in all cases: in vivo, Lewis rats
[1] = test system: Experimental Autoimmune Neuritis; assay: Body weight course in EAN rats; settings: 1 mg/kg once daily, control showed significant weight loss Day 10 to 18
Protocol: (§1) Male Lewis rats (8-10 weeks, 180-200 g, Elevage-Janvier, France) were housed under a 12 h light-12 h dark cycle and with free access to food and water. All animal procedures were in accordance with a protocol approved by the local Administration District Official Committee. All efforts were made to minimize the number of animals and their suffering.
(§2) For EAN induction, rats were immunized by subcutaneous injection into both hind footpads with 100 μL of an inoculum containing 100 μg of synthetic neuritogenic P2 57-81 peptide (GeneScript Corporation, Scotch Plains, N.J., USA). The peptide was dissolved in phosphate buffered saline (PBS) (2 mg/mL) and then emulsified with an equal volume of complete Freund's adjuvant (CFA) containing 2 mg/mL mycobacterium tuberculosis to get a final concentration of 1 mg/mL.
Compound A was tested at a concentration of 1 mg/kg (suspended in a water vehicle). The compound A suspension was intragastrically administrated immediately after induction and then once daily until Day 22 (5 rats per group). For control EAN rats, the same volume of 1% CMC in water was given.

[2] = test system: Experimental Autoimmune Neuritis; assay: EAN clinical score, suppressive treatment; settings: EAN rats, 1 mg/kg intragastrically once daily from immunization until Day 22; scale 0-10; control maximal 4.80±0.51 at Day 13
Protocol: as §1, §2
EAN clinical scores were evaluated every day as follows: 0=normal, 1=reduced tonus of tail, 2=limp tail, impaired righting, 3=absent righting, 4=gait ataxia, 5=mild paresis of the hind limbs, 6=moderate paraparesis, 7=severe paraparesis or paraplegia of the hind limbs, 8=tetraparesis, 9=moribund, and 10=death (Zhang et al., 2009A).
Compound A was tested at a concentration of 1 mg/kg (suspended in a water vehicle). The compound A suspension was intragastrically administrated immediately after induction and then once daily until Day 22 (5 rats per group). […]

[3] = test system: Experimental Autoimmune Neuritis; assay: Luxol Fast Blue staining, semiquantitative histological score of EAN sciatic nerves; settings: EAN rats, Day 16, 1 mg/kg in water vehicle, LFB staining of sciatic nerves, scale 0-3
Protocol: as §1
For EAN induction, rats were immunized by subcutaneous injection into both hind footpads with 100 μL of an inoculum containing 100 μg of synthetic neuritogenic P2 57-81 peptide (GeneScript Corporation, Scotch Plains, N.J., USA). […]
The routine Luxol Fast Blue (LFB) staining was applied to show myelin. […] Briefly, four cross-sections from root and middle level of both sides of EAN rats were analyzed. All perivascular areas present in cross-sections were evaluated by two observers unaware of the treatment, and the degree of pathological alteration was graded semiquantitatively on the following scale: 0=normal perivascular area; 1=mild cellular infiltrate adjacent to the vessel; 2=cellular infiltration plus demyelination in immediate proximity to the vessel; and 3=cellular infiltration and demyelination throughout the section. […]

[4] = test system: Experimental Autoimmune Neuritis; assay: Immunohistochemistry of inflammatory cell infiltration in EAN sciatic nerves; settings: EAN rats, Day 16, 1 mg/kg, sciatic nerve cross-sections, n=5

How did the weight loss [1] turn out when CCC(N)(CO)CCc1ccc(Sc2cccc(OCc3ccccc3)c2)cc1Cl (stereo not drawn) [Compound A, 2-amino-4-[4-(3-benzyloxyphenylthio)-2-chlorophenyl]-2-ethylbutane-1-ol hydrochloride] was run?
The weight loss was “a reduced level of weight loss was observed from Day 13 to 15”.

What about the mean neurological score [2] of the same compound?
Its mean neurological score is less than 0.1.

What about the “Mean Histological Score” value [3] of the same compound?
Its value is 0.10.

And the “Area of immunoreactivity/area of sciatic nerves (%) for B cells (OX22+)” value [4]?
Its value is less than 0.01%.

And the “Area of immunoreactivity/area of sciatic nerves (%) for Macrophages (ED1+)” value [4]?
The value was less than 0.05%.

What about the “Area of immunoreactivity/area of sciatic nerves (%) for T cells (W3/13+)” value [4] of the same compound?
Its value is less than 0.01%.

Reference: patent US20110190398A1, “USE OF IMMUNOS[…] IN A NEW INDICATION” (NOVARTIS AG, priority 2008, published 2011)
